According to patent US20100129856A1, “Methods and Devices for Cell Signaling Under Pulse Stimulation” (priority 2008, published 2010):
No end group written: not given here.

Experiments:
PAR1 receptor = target: T1, PAR1 receptor (Homo sapiens, UniProt P25116); assay: Microfluidics-RWG biosensor DMR assay of A549 cells with PAR1 agonists; assay type: cell-based; settings: for EC100: DMR; for Reversibility of the triggered cellular response: agonist removed after 30 min; for Response of pre-treated cells to second stimulation with 10 unit/ml thrombin: first exposure 30 min (SFLLR-amide 10 μM or thrombin 5 unit/ml), HBSS ~2 hours, then thrombin, FIG. 10; for P-DMR signal maximal amplitude (shift in resonant wavelength): thrombin 5 unit/ml, SFLLR-amide 10 μM, constant flow 1 microliter per min, FIG. 9
T1 construct: triggered an almost indistinguishable DMR signal in A549 cells; host or cells: A549 (human lung carcinoma), not starved
T1 sequence (P25116 22-425): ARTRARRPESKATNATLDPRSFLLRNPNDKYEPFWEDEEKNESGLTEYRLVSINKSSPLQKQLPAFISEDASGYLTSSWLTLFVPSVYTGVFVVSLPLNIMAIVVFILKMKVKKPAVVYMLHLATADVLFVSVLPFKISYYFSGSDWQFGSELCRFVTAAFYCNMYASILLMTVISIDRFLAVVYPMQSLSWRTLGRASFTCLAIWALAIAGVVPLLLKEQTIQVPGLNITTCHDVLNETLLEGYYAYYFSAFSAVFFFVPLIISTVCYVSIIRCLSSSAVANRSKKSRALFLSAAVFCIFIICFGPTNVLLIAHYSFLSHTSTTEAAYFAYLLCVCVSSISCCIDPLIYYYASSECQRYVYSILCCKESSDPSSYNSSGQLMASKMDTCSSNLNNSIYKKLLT
Procedure: (§1) Cells were typically grown using ˜1 to 2×10^4 cells per well at passage 3 to 15 suspended in 50 μl of the corresponding culture medium in the biosensor microplate, and were cultured at 37° C. under air/5% CO2 for ˜1 day. Except for A431 which was subject to ˜20 hr starvation through continuously culture in the serum-free DMEM, the A459 cells were directly assayed without starvation. The confluency for all cells at the time of assays was ˜95% to 100%. For cell culture in the microfluidics-biosensor chamber systems, ˜4×10^4 cells suspended in 10 μl the medium containing 10% FBS were injected into the chamber, and were cultured at 37° C. under air/5% CO2 until ˜95% confluency was reached (˜1 day). To prevent drying during the culture, the biosensor device was maintained within a petri dish with a cover, and extra cell medium within the dish.
(§2) Label-free biosensor cell assays: Corning RWG (resonant waveguide grating) imaging system was used for label-free biosensor cell assays. The imaging system, based on swept wavelength interrogation, is capable of high resolution imaging, with a spatial resolution of 6 micron in the direction perpendicular to the propagation path of the coupled light, a resolution of about 150 or about 6 microns in the direction parallel to the propagation path of the coupled light. The cellular responses across the whole sensor were recorded in real time at each pixel (6 microns×6 microns). The cellular responses at defined locations or areas of the biosensor surface were averaged to generate responses of a population of cells within the detection area(s).
The A431 cells reached high confluency before assays, and were subject to starvation for overnight with serum free medium. For A549 cells, cells were grown to high confluency and used for assays without starvation. Before assays, the cell medium was replaced with 1× Hanks' balanced salt solution (HBSS) having 20 mM Hepes buffer, and incubated within the imaging system for about 1 hour. The chamber was filled with 6.6 micro-liters buffered solution. The HBSS buffer solution was initially introduced into the chamber from the inlet and flowed through the biosensor with a low flow rate (typically 1 μl/min or 1 microliter/min) using a controlled pump until a steady baseline was reached. Then, a first solution, typically a solution containing a receptor agonist or a compound dissolved in the HBSS buffer, was introduced by switching the valve, and flowed through the biosensor for a period of time (e.g., 1 min, or 5 min, or 30 min). Subsequently, the HBSS buffer solution was reintroduced and flowed through the biosensor to replace the first solution. After certain time period, a second solution, typically a solution containing a receptor agonist or a compound, either different or the same as the first solution, was introduced and flowed through the biosensor continuously to trigger a cellular response. The flow rate was typically relatively low (˜0.5 μ/min to 5 μl/min), such that no mechanical sensitive cellular responses were triggered, and the cellular responses observed were largely due to the chemical(s) in the solution. Different combinations of these steps can be applied, depending on the purpose of the assays. The cellular responses throughout the assays were recorded using the high resolution imaging system. Depending on the biosensor insert used, the biosensor has a dimension of 3 mm×3 mm or 2 mm×2 mm. The chamber dimension is a length of about 9 mm from the inlet to the outlet, a width of 5 mm, and a height of 100 microns from the sensor surface to the bottom surface of the chamber. The total volume of solution required to fill the chamber is about 6 micro-liters.
For biosensor cellular assays, a baseline was established first. All studies were carried out at controlled temperature (22° C.) and with three replicates for each measurement, unless specifically mentioned. […]

[1] = target: T2, β2-adrenergic receptor (β2AR) (Homo sapiens, UniProt P07550); assay: Buffer swapping RWG biosensor DMR assay (microplate) for long-acting agonism; assay type: cell-based
T2 construct: 2 nM epinephrine-induced DMR signal of quiescent A431 cells; host or cells: A431 (human epidermoid carcinoma), serum-starved (quiescent)
T2 sequence (P07550 whole entry): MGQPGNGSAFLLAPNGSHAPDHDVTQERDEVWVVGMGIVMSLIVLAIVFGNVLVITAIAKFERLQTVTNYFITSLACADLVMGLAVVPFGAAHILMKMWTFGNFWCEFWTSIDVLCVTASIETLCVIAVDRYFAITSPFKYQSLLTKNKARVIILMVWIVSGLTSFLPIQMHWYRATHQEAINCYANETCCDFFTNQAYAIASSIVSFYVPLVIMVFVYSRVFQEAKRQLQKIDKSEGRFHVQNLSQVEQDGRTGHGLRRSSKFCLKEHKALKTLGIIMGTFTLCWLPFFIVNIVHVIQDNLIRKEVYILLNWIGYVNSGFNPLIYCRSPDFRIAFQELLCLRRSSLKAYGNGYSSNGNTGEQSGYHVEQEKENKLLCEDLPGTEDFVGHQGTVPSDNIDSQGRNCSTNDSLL
Procedure: Cells were typically grown using ˜1 to 2×10^4 cells per well at passage 3 to 15 suspended in 50 μl of the corresponding culture medium in the biosensor microplate, and were cultured at 37° C. under air/5% CO2 for ˜1 day. […] The confluency for all cells at the time of assays was ˜95% to 100%.

quiescent A431 cells = assay: Microfluidics-RWG biosensor DMR assay under pulse or sustained stimulation; assay type: cell-based, human; settings: FIG. 8; for DMR signal under pulse stimulation compared with sustained epinephrine response: 2 min pulse, 2 nM epinephrine, 100 nM salbutamol, flow 1 microliter/min
Procedure: as §1, §2
The A431 cells reached high confluency before assays, and were subject to starvation for overnight with serum free medium. For A549 cells, cells were grown to high confluency and used for assays without starvation. Before assays, the cell medium was replaced with 1× Hanks' balanced salt solution (HBSS) having 20 mM Hepes buffer, and incubated within the imaging system for about 1 hour. […] The cellular responses throughout the assays were recorded using the high resolution imaging system. […]

[2] = quiescent A431 cells, pulse about 60 sec, 100 nM norepinephrine, 100 nM salbutamol, 100 nM salmeterol, FIG. 7b

| EC100 (PAR1 receptor; A549 cells) | Reversibility of the triggered cellular response (PAR1 receptor; A549 cells) | P-DMR signal maximal amplitude (shift in resonant wavelength) (PAR1 receptor; A549 cells) | Molecule | Effect of pulse pre-treatment on the 2 nM epinephrine-induced DMR signal [1, 2] | DMR signal under pulse stimulation compared with sustained epinephrine response (quiescent A431 cells) | Response of pre-treated cells to second stimulation with 10 unit/ml thrombin (PAR1 receptor; A549 cells) | further results |
| --- | --- | --- | --- | --- | --- | --- | --- |
| – | – | – | C[C@@H]1C[C@@H]([C@H](O)CC2CC(=O)NC(=O)C2)C(=O)[C@@H](C)C1 [cycloheximide] | – | – | – | Effect on the second thrombin response of thrombin-treated A549 cells (PAR1 receptor; 10 μM cycloheximide in every solution, data not shown): largely eliminated |
| – | – | – | CNC[C@H](O)c1ccc(O)c(O)c1 [epinephrine] | little impact | much smaller response | – | Response to second stimulation with 2 nM epinephrine after sustained pre-treatment ([1]; A431 cells pre-treated with 2 nM epinephrine under sustained stimulation, data not shown): completely desensitized; Long-acting or short-acting agonism at the β2AR ([1]; concluded from pulse stimulation through buffer swapping, quiescent A431 cells): short-acting agonist; Effect of pulse pre-treatment on the 2 nM epinephrine-induced DMR signal ([1]; quiescent A431 cells, pulse about 150 sec, 0.5 nM salmeterol, 1 nM CGP12177, 0.1 nM formeterol, FIG. 7a): did not cause the de-sensitization; DMR signal under sustained stimulation at slow flow rate (quiescent A431 cells; 2 nM epinephrine flowed throughout the assay, 1 microliter/min): comparable to that obtained using microplate-based sustained response |
| – | – | – | NC[C@H](O)c1ccc(O)c(O)c1 [norepinephrine] | little impact | – | – | – |
| – | – | – | CC(C)(C)NCC(O)c1ccc(O)c(CO)c1 (stereo not shown) [salbutamol] | – | much smaller response | – | – |
| 10 µM | largely reversible | ~400 picometers | SFLLR-amide (SFLLR-NH2; UniProt P25116 42-46, looked up, fragment) | – | – | still able to respond to the second stimulation with thrombin with slightly smaller amplitude | Plateau level of DMR signal above the baseline after switching back to HBSS (PAR1 receptor; A549 cells, 10 μM agonist replaced with HBSS 30 min after stimulation, FIG. 9a): about 120 picometers |
| 5 unit/ml | largely irreversible | ~400 picometers | thrombin | – | – | only gave rise to a little response | DMR signal after switching back to HBSS (PAR1 receptor; A549 cells, 5 unit/ml agonist replaced with HBSS 30 min after stimulation, FIG. 9b): still maintained elevated signal |
